According to patent publication US8802162B2, “L-citrulline for treating endothelial dysfunction and erectile dysfunction” (Androsystems S.R.L., priority 2008, dated 2014):

Legend:
[1] = Urinary excretion of nitrates, randomized prospective study in erectile dysfunction patients; type: in vivo; conditions: for Urinary excretion of nitrates, baseline: before administration; for Urinary excretion of nitrates, after administration: oral, L-citrulline 6 grams/day or L-arginine 3 grams/day, 7 days after beginning of administration
Procedure: (§1) The effectiveness of the administration of L-citrulline in the treatment of erectile dysfunction has been verified by conducting a randomized prospective study on 20 patients, during which L-citrulline was administered orally with a dosage of 6 grams/day, in two separate 3-gram doses, to patients affected by erectile dysfunction.
(§2) The effects of the administration were then tested at the biochemical level by studying the following parameters:
3. urinary excretion of nitrates;
(§3) The data related to the above cited biochemical parameters were acquired for patients subjected to the test 7 days after the beginning of the administration of the drug and are shown below in Table 1, Table 2, Table 3 and Table 4.

[2] = Urinary excretion of cGMP, randomized prospective study in erectile dysfunction patients; type: in vivo; conditions: for Urinary excretion of cGMP, baseline: before administration; for Urinary excretion of cGMP, after administration: oral, L-citrulline 6 grams/day or L-arginine 3 grams/day, 7 days after beginning of administration
Procedure: as §1, §2
4. urinary excretion of cGMP.
as §3

[3] = Plasma levels of L-arginine after oral administration, randomized prospective study in erectile dysfunction patients; type: in vivo; conditions: in words
Procedure: as §1, §2, §3

[4] = Blood L-arginine/ADMA ratio, randomized prospective study in erectile dysfunction patients; type: in vivo
Procedure: as §1, §2, §3

erectile dysfunction = assay: Erectile function assessment card (IIF-5 questionnaire); type: in vivo, patients; conditions: oral 6 grams/day, in words
Procedure: as §1
(§4) Moreover, the effects at the clinical level were also tested by administering the “Erectile function assessment card” (IIF-5 questionnaire) to the patients and by measuring flow-mediated vasodilation of the cavernous arteries before and after therapy.

cavernous arteries = assay: Flow-mediated vasodilation of the cavernous arteries before and after therapy; type: in vivo, patients; conditions: oral 6 grams/day, before vs after therapy, in words
Procedure: as §1, §4

With `N=C(N)NCCC[C@H](N)C(=O)O` [L-arginine, reference compound] the “Urinary excretion of nitrates, baseline” value [1] was 91 ± 10 nmol/mmol creatinine, the “Urinary excretion of nitrates, after administration” value [1] was 93 ± 12 nmol/mmol creatinine and the “Urinary excretion of cGMP, baseline” value [2] was 38 ± 3.1 nmol/mmol creatinine. For the same compound, the “Urinary excretion of cGMP, after administration” value [2] was 39 ± 4.5 nmol/mmol creatinine.
For `NC(=O)NCCC[C@H](N)C(=O)O` [L-citrulline], the “Plasma half-life of L-arginine with respect to administration of L-arginine” value [3] was “statistically longer”, the “Plasma levels of arginine with respect to administration of L-arginine” value [3] was “statistically higher” and the “L-arginine/ADMA ratio, baseline” value ([4]; baseline, before administration) was 183 ± 8. For the same compound, the “L-arginine/ADMA ratio, after administration” value ([4]; oral, L-citrulline 6 grams/day or L-arginine 3 grams/day, 7 days after beginning of administration) was 290 ± 15, the “Urinary excretion of nitrates, baseline” value [1] was 89 ± 9 nmol/mmol creatinine and the “Excretion of nitrates with respect to administration of L-arginine” value ([1]; oral administration, in words) was “higher excretion”. For the same compound, the “Urinary excretion of nitrates, after administration” value [1] was 133 ± 16 nmol/mmol creatinine, the “Urinary excretion of cGMP, baseline” value [2] was 40 ± 2.8 nmol/mmol creatinine and the “Excretion of cGMP with respect to administration of L-arginine” value ([2]; oral administration, in words) was “higher excretion”. The “Urinary excretion of cGMP, after administration” value [2] was 55 ± 3.8 nmol/mmol creatinine, the “IIF-5 questionnaire, components related to achieving and maintaining erection” value (erectile dysfunction) was “leads to a modification of the IIF-5 questionnaire” and the “Increase in flow-mediated vasodilation at the level of the cavernous arteries” value (cavernous arteries) was “statistically higher increase”.
